Measured values taken from patent publication US20100240746A1, “STEREOISOMERS OF TRICYCLODECAN-9-YL-XANTHOGENATE” (LUMAVITA AG, priority 2007, published 2010).
In brackets after ≈: the same amount, converted by molar mass.

Columns and labels:
[1] = test system: phosphatidylcholine-specific phospholipase C (PC-PLC); conditions: Gonzalez-Roura et al.; comparison between diastereomers; cited from earlier work
[2] = molecular target: T1, B. cereus PC-PLC (phosphatidylcholine-specific phospholipase C) (Bacillus cereus, UniProt P09598); test: Inhibition of phosphatidylcholine-specific phospholipase C (Amplex Red PC-PLC assay kit); type: biochemical; conditions: 30 min at 37° C., 0.2 U/mL PC-PLC solution, triplicate
T1 construct: purchased Invitrogen
Description: (§1) The inhibitory activities of optically active potassium salts of (+)- and (−)-O-exo/C-exo-tricyclo [5.2.1.0^2,6]-dec-9-yl-xanthic acid 1A ((+)- and (−)-enantiomers 1A) against phosphatidylcholine-specific phospholipase C were evaluated, together with D609 and potassium salt of racemic O-exo/C-exo xanthic acid 1A (racemic 1A), using Amplex Red phosphatidylcholine-specific phospholipase C(PC-PLC) assay kit, which was obtained from Invitrogen (Calsbad, Calif.). D609 was obtained from Sigma Aldrich.
(§2) An Amplex Red stock solution (˜20 mM), a working reaction buffer, and a horseradish peroxidase stock solution (200 U/mL), a H2O2 working solution (20 mM), a choline oxidate stock solution (20 U/mL), an alkaline phosphatase stock solution (400 U/mL), and a B. cereus PC-PLC stock solution (10 U/mL) were prepared according to the instruction of the assay kit. The stock solution (100 mg/mL) for each test compound was also prepared by dissolving the compound in water 2 hr prior to the start of the experiment.
(§3) A working Amplex Red/HRP/lecithin solution was prepared by adding 200 μL of Amplex Red reagent stock solution, 100 μL of HRP stock solution, 200 μL of alkaline phosphatase stock solution, 100 μL of choline oxidase stock solution, and 78 μL of the lecithin solution to […] of the working reaction buffer. PC-PLC solution (0.2 U/mL) was prepared by diluting the PC-PLC stock solution with the working reaction buffer to the desired concentration.
The test compound (25 μL) at a serious of concentrations was pipetted into a 96 well plate. For uninhibited PC-PLC controls and non-PC-PLC controls, 25 μL of water was added. After the addition of 50 μL of the Amplex Red/HRP/lecithin working solution, the reaction was initiated by adding 25 μL of PC-PLC solution to each well. […] After incubated for 30 min at 37° C., the reactions were measured with a fluorescence microplate reader using excitation at 550 nm and emission detection at 590 nm. The fluorescent data obtained were corrected for background fluorescence by subtracting the values obtained from the non-PC-PLC controls.

[3] = test system: bovine papilloma virus type I (BPV-1)-transformed HEF (HEF-BPV); test: Inhibition of bovine papilloma virus, BPV-infected hamster embryo fibroblasts (HEF) cell proliferation assay; type: cell-based; conditions: Bos taurus papillomavirus 1, HEF, 72 h, pH 6.8, HEF-BPV, 37° C., read-out: IC50
Description: Briefly, hamster embryo fibroblasts and bovine papilloma virus type I (BPV-1)-transformed HEF (HEF-BPV) were grown in Eagle's basal medium. […] and HEF cells were seeded in 96-well plates at a density of 0.5×10^6 cells per plate in DMEM cell culture medium containing 10% fetal calf serum at pH 6.8. The plates were then incubated in the presence of 5% CO2 in 100% humidity at 37° C. After 6 hr, the cell culture medium in the plates was exchanged with fresh DMEM cell culture medium containing test compounds at a series of concentrations. The plates were incubated at 37° C. for additional 72 hr. Cells in the plates were then washed with PBS, fixed with 3% formaldehyde solution containing 0.9% NaCl for 1 min, washed by water for 10 sec, and dried overnight. For detection, the plates were stained with crystal violet solution for 5 min at room temperature, washed 5 times with water, and dried at room temperature overnight. After adding ethanol/acetic acid (99:1, v/v, […]) to each well, the plates were measured at 595 nm using an ELISA reader.

[4] = test system: Herpes simplex virus type-2 (HSV-2); test: Inhibition of HSV-2 (plaque assay; Calu-6 infected, RITA cells for plaques); type: cell-based
Description: (§4) Calu-6 cells and RITA cells were grown in DMEM cell culture medium containing 10% fetal calf serum in CO2 incubator under 5% CO2 at 37° C. with 100% humidity.
(§5) For HSV-2 inhibition, Calu-6 cells were seeded in 96 well plates at a density of 3×10^6 cells per plate in the DMEM cell culture medium. The plates were incubated at 37° C. in the presence of 5% CO2 for 24 hr. The DMEM cell culture medium in the plates was removed and the cells were infected with Herpes simplex virus type-2 at 50 plaque forming units per well. After incubation at 37° C. for 60 min, test compounds in DMEM cell culture medium at a series of concentrations were added. The plates were incubated at 37° C. in the presence of 5% CO2 for 48 hr. The plates were frozen at −20° C. prior to further analysis. After thawing at room temperature, supernatants containing infectious virus particles were prepared by centrifuging the supernatant from each well at 18,000 g at 4° C. for 5 min. The supernatant was further diluted before assay.
RITA cells were seeded in 24 well Linbra plates at a density of 4×10^6 cells per plate in 2 mL of DMEM cell culture medium. The plates were incubated at 37° C. in the presence of 5% CO2 for 24 hr. After the removal of the cell culture medium, 0.1 mL of the diluted supernatants was added and the plates were incubated at 37 C for 1 hr. DMEM cell medium containing 10% fetal calf serum and 0.5% methyl cellulose was added and the plates were incubated at 37 for 48 hr. The plates were then washed with PBS, fixed with 3% formaldehyde solution containing 0.9% NaCl for 1 min, washed by water for 10 sec, and dried overnight. For detection, the plates were then stained with crystal violet solution for 5 min at room temperature, washed 5 times with water, and dried at room temperature overnight. The number of plaques was determined macroscopically. The number of plaques per well was then multiplied with the dilution factor. Dose response curves were obtained by plotting the number of plaques/0.1 mL against compound concentration. The therapeutic index was also calculated for each compound by dividing LD50 with IC50.

[5] = molecular target: T2, phosphatidylcholine-specific phospholipase C (PC-PLC) (Bacillus cereus, UniProt P09598); test: Amplex Red phosphatidylcholine-specific phospholipase C (PC-PLC) inhibition assay; type: biochemical, B. cereus; conditions: 30 min at 37° C., triplicate
T2 construct: purchased Invitrogen
Description: as §1, §2, §3
The test compound (25 μL) at a serious of concentrations was pipetted into a 96 well plate. For uninhibited PC-PLC controls and non-PC-PLC controls, 25 μL of water was added. After the addition of 50 μL of the Amplex Red/HRP/lecithin working solution, the reaction was initiated by adding 25 μL of PC-PLC solution to each well. To the non-PC-PLC controls, 25 μL of water was added instead of PC-PLC solution. The experiment was performed in triplicate. The reactions were protected from light. After incubated for 30 min at 37° C., the reactions were measured with a fluorescence microplate reader using excitation at 550 nm and emission detection at 590 nm. The fluorescent data obtained were corrected for background fluorescence by subtracting the values obtained from the non-PC-PLC controls.

[6] = test system: Calu-6 cells; test: Cytotoxicity assay in Calu-6 cells (crystal violet); type: cell-based; conditions: 48 hr
Description: as §4
For cytotoxicity assay, Calu-6 cells were seeded in 96 well plates at a density of 3×10^6 cells per plate in the DMEM cell culture medium. The plates were incubated at 37° C. in the presence of 5% CO2 for 24 hr. The DMEM cell culture medium in the plates was exchanged with fresh DMEM cell culture medium containing test compounds at a series of concentrations. The plates were incubated at 37° C. in the presence of 5% CO2 for 48 hr. The plates were then washed with PBS, fixed with 3% formaldehyde solution containing 0.9% NaCl for 1 min, washed by water for 10 sec, and dried overnight. For detection, the plates were stained with crystal violet solution for 5 min at room temperature, washed 5 times with water, and dried at room temperature overnight. After adding ethanol/acetic acid (99:1, v/v, […]) to each well, the plates were measured at 595 nm using an ELISA reader. A dose response curve was obtained for each compound tested by plotting the mean values of the optical densities against compound concentration.

[7] = test system: herpes simplex virus type 2; test: HSV-2 inhibition in Calu-6 cells, plaque titration on RITA cells; type: cell-based; conditions: Human alphaherpesvirus 2, Calu-6; 48 hr, 50 plaque forming units per well
Description: as §4, §5
RITA cells were seeded in 24 well Linbra plates at a density of 4×10^6 cells per plate in 2 mL of DMEM cell culture medium. The plates were incubated at 37° C. in the presence of 5% CO2 for 24 hr. […] The number of plaques was determined macroscopically. […] The therapeutic index was also calculated for each compound by dividing LD50 with IC50.

[8] = test system: HPV-31-infected CIN612 9E keratinocytes; test: Short-term study: growth of HPV-31-infected CIN612 9E keratinocytes (crystal violet); type: cell-based; conditions: at 200 UI/mL, 72 hrs
Description: The inhibitory activities of optically active (−)-enantiomer 1A against human papilloma virus were evaluated using HPV-31-infected CIN612 9E keratinocytes (Meyers et al., Science 1992, 257, 971-973).
Effect on cell proliferation. HPV-31 infected cells were seeded in 96-well plates containing 1×10^6 mitomycin C treated 3T3 cells (1×10^4 cells/well), at a density of 0.5×10^6 cells per plate (0.5×10^4 cells/well) in E medium. After the plates were incubated in a CO2 incubator under 5% CO2 at 37° C. in 100% humidity for six hrs, the cell culture medium was removed and fresh E medium containing 0.85 g/L NaHCO3 and a test compound at a series of concentrations (0, 0.5, 1, 2, 4, 8, 16, 32, 64, and 128 μg/mL), or positive control (interferon γ at 200 IU/mL) was added. […] After the plates were dried on blotting paper upside down overnight, 0.1 mL of ethanol/acetic acid (99:1) was added to each well and optical density at 595 nm was determined in an ELISA reader.
Dose response curves were established by plotting growth against concentrations of the test compound or control. ICso values were determined from the dose response curves from crossing points of the dose response curves with a line parallel to the x-axis corresponding to 50% of uninhibited growth.

[9] = test system: HPV-31-infected CIN612 9E keratinocytes; test: Long-term study: cell proliferation and morphology of CIN612 9E cells over 9 passages; type: cell-based; conditions: 200 IU/mL
Description: (§6) HPV-31 infected cells (3×10^6) were dispensed into 14.5 cm dishes containing fresh E medium and 1×10^6 cells of mitomycin C-treated 3T3 fibroblast feeders. The dishes were incubated in a CO2 incubator under 5% CO2 at 37° C. in 100% humidity. Human A431 epithelial cancer cells were used as HPV-uninfected negative controls. After 6 hr incubation, the cell culture medium was removed and fresh E medium containing 0.85 g/L NaHCO3 and a test compound at concentrations of 10 and 3.3 μg/mL, or control (interferon γ at 200 IU/mL) were added. For each concentration, 4 dishes were prepared. The dishes were incubated at 37° C. in a CO2 incubator. The culture medium was replaced to new E medium containing each concentration of the test compound or control in every 72 hrs. After seven days, or when untreated cells became confluent, one dish of each group was harvested for DNA/RNA extraction, followed by Southern/Northern Blot analysis; and one dish was trypsinized, cell number were determined and cells were seeded in three new dishes, treated and cultured as described above. This procedure was repeated for 9 passages. During these passages, morphology of cells and cell density were monitored.
Effect on cell proliferation. Cell numbers in the dishes harvested were determined in a Neubauer hematocytometer. The multiplication factor was determined at every step of passage. The cell number of each culture at the end of the passage was divided by the number of seeded cells at the start of each passage. The end point was reached when keratinocytes treated with a test compound stopped growing. Stop of cell growth was defined as a multiplication factor of no greater than 1.

[10] = test system: HPV-31 specific DNA; test: Long-term study: HPV-31 specific DNA level (Southern blot); type: cell-based, human papilloma virus; conditions: at 200 IU/mL
Description: as §6
(§7) Effect on HPV-31 specific DNA and RNA: DNA and RNA were analyzed in Southern and Northern Blot gels for HPV-31 specific sequences. X-ray films were scanned and optical densities of HPV-31 specific DNA and major mRNA species were integrated. Time curves were established by plotting integrated values against number of passages for each treatment dose. The T50 (time required to reduce the level to 50% of control) was determined from the time curves from crossing points of time curves with a line parallel to the x-axis corresponding to 50% of integrals of untreated control sample.

[11] = test system: HPV-31 specific RNA; test: Long-term study: HPV-31 specific RNA level (Northern blot); type: cell-based, human papilloma virus; conditions: at 200 IU/mL
Description: as §6, §7

T1 sequence (P09598 39-283 limits assumed): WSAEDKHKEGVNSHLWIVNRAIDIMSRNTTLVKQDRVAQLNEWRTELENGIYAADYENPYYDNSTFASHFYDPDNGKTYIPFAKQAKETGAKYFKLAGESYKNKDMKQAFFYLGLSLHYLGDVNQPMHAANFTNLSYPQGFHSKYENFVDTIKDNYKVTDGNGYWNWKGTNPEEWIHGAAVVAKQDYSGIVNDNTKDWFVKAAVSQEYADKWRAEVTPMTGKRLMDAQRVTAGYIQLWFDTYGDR
T2 sequence (P09598 39-283 limits assumed): as above

For S=C(S)OC1CC2CC1C1CCCC21 (racemic) [Racemic 1A, racemic O-exo/C-exo-tricyclo[5.2.1.0^2,6]-dec-9-yl-xanthic acid], the “inhibitory activities against PC-specific phospholipase C” value [1] is given as “no significant differences”.

For S=C(S)OC1CC2CC1C1CCCC21 (single isomer, unassigned; (+)) [(+)-Enantiomer 1A, (+)-O-exo/C-exo-tricyclo[5.2.1.0^2,6]-dec-9-yl-xanthic acid], the IC50 [2] was 60.8 µM, the IC50 [3] was 19.9 ± 2.52 µg/mL (≈ 87.1 µM) and the IC50 ([4]; Calu-6 cells, 48 hr, 50 plaque forming units per well) was 20.97 ± 4.06 µg/mL (≈ 91.8 µM). The “Therapeutic Index” value ([4]; LD50 (Calu-6) divided by IC50 (HSV-2), 2880 min) was 3.9.

With S=C(S)OC1CC2CC1C1CCCC21 (single isomer, unassigned; enantiomer 1a) [(+)-Enantiomer 1A, (+)-O-exo/C-exo-tricyclo[5.2.1.0^2,6]-dec-9-yl-xanthic acid 1A] the IC50 [5] was 13.88 ± 0.85 µg/mL (≈ 60.8 µM) and the LD50 [6] was 81.29 ± 4.53 µg/mL.

With Nc1nc2c(ncn2COCCO)c(=O)[nH]1 [Aciclovir, aciclovir] the IC50 [7] was 1.21 ± 0.81 µg/mL (≈ 5.37 µM).

In the case of S=C(S)OC1CC2CC1C1CCCC21 (stereo not drawn) [O-exo/C-endo 1B], the “inhibitory activities against PC-specific phospholipase C” value [1] is listed as “no significant differences”.

B1: INF-γ: interferon γ, positive control at 200 IU/mL (protein, UniProt P01579 24-161, looked up)
Interferon gamma: QDPYVKEAENLKKYFNAGHSDVADNGTLFLGILKNWKEESDRKIMQSQIVSFYFKLFKNFKDDQSIQKSVETIKEDMNVKFFNSNKKKRDDFEKLTNYSVTDLNVQRKAIHELIQVMAELSPAAKTGKRKRSQMLFRG
With B1 the “inhibition of the growth of HPV-31-infected CIN612 9E keratinocytes” value [8] was “about 50%”, the multiplication factor ([9]; first cell passage) was 0.8 and the multiplication factor ([9]; second passage) was 2.4. For the same molecule, the “T50 DNA” value [10] was 2.7 passages and the “T50 RNA” value [11] was 3.36 passages.
